A word on the Ki: it is the equilibrium dissociation constant of an inhibitor or competing ligand from its target. Read a high Ki as weaker binding. In general, IC50 refers to the concentration at which inhibition is half-maximal.

Assay [1] has as its target T1, endogenous human UII receptor (Homo sapiens, UniProt Q9UKP6).
T1 sequence (Q9UKP6 1-389): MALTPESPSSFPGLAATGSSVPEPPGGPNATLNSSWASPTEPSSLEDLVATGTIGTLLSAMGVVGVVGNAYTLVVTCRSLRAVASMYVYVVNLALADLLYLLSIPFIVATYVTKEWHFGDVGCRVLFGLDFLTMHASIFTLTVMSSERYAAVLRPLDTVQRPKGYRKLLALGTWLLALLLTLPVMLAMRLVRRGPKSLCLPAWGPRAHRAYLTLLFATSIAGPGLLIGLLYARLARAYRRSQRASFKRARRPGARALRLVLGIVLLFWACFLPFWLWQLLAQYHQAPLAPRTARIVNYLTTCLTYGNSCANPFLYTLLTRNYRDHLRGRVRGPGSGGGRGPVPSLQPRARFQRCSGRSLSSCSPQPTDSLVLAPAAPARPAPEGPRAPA
Nature of the assay: Human Radioligand Binding Assay ((^125I)-U-II binding to human skeletal muscle myoblasts).

Assay [2] addresses T2, rat GPR14 (U-II receptor) (Rattus norvegicus, UniProt P49684).
T2 construct: expressed in transfected cells
T2 sequence (P49684 1-386): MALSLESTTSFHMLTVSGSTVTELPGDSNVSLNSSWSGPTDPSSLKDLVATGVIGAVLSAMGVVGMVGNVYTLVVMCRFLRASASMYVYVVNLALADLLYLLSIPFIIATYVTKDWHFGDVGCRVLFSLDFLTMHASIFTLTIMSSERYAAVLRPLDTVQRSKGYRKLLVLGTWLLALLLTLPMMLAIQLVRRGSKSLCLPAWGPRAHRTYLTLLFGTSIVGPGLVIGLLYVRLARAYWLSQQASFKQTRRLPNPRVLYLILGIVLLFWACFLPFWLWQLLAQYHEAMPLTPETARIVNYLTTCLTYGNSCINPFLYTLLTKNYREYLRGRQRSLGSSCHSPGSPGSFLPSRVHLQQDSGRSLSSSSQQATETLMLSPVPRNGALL
Nature of the assay: Rat UII Calcium Mobilization FLIPR Assay. The note with it: for inhibition at 10 µM / inhibition at 50 µM: CHO, 5 min, agonist-induced Ca2+ mobilization (FLIPR), CHO cells with rat UII receptor; for inhibition at 10 µM: 10 μM compound, read-out: % I @ 10; for inhibition at 50 µM: 50 μM compound, read-out: % I @ 50. It counts as cell-based. From the text: To derive these cells, the complete coding sequence of rat U-II (Genbank Accession No. U32673) was amplified by nested PCR from rat heart marathon-Ready cDNA. […] The PCR products were cloned into pcDNA3 (Invitrogen) digested with EcoR I and Xba I. Clones containing rat U-II receptor were verified by complete sequencing of the U-II receptor insert to ensure a lack of PCR-introduced errors. The constructed vector was transfected into CHO cells by using lipofectamine (GIBCO BRL). CHO cells with high expression of rat U-II receptor were selected and established as stable cell lines by using G418. CHO cells were seeded at 25,000 cells per well into 96-well, black-wall, clear-bottom microtiter plates 24 h before assay. Cells in culture media (DMEM/F12 containing 15 mM HEPES, L-glutamine, pyridoxine hydrochloride; 10% fetal bovine serum; 1 mg/mL G418 sulfate; antibiotic-antimycotic; pH 7.4) were loaded with proprietary dye, from the FLIPR Calcium Assay Kit (Molecular Devices), prepared in assay buffer (Hanks Balanced Salts Solution, 20 mM HEPES, 0.1% BSA, 2.5 mM probenecid, pH 7.4), and incubated for 1 h at 37° C. Calcium mobilization determinations were performed at room temperature (23° C.).

Setting [3] is: Inhibition of human UII binding to human skeletal muscle myoblasts containing endogenous human UII receptor.
The mark [4] stands for this setting: Inhibition of Acetyl-cyclic[Cys-Phe-Trp-Lys-(2-Nal)-Cys]-NH2 induced Ca2+ mobilization (FLIPR) in CHO cells transfected with rat UII receptor, read-out: IC50.
Setting [5] is: average value for the compound tested, read-out: Rat UII FLIPR Average IC50.

Several values for one entry are separate records, joined by “and”; a condition that tells them apart may be missing. Identical values can stand only once. Like-named read-outs stand apart in the source and are kept apart here.

`COc1ccc(CN2C(=O)c3cccc(N4CCN([C@H](C)c5ccccc5)CC4)c3C2=O)cc1OC` [Cpd 1, 2-(3,4-dimethoxy-benzyl)-4-[4-(1R)-(1-phenyl-ethyl)-piperazin-1-yl]-isoindole-1,3-dione]: in assay [1] (setting [3]), affinity was put at a Ki of 570 nM. Besides, in assay [2], the inhibition at 10 µM amounted to 99% and the inhibition at 50 µM was 99%. Also, the IC50 in assay [2] (setting [4]) is 46 nM and 84 nM.
Molecule `COc1ccc(C(C)N2C(=O)c3cccc(N4CCN([C@H](C)c5ccccc5)CC4)c3C2=O)cc1OC` (stereo partly drawn) [Cpd 2, 2-[1-(3,4-dimethoxy-phenyl)-ethyl]-4-[4-(1R)-(1-phenyl-ethyl)-piperazin-1-yl]-isoindole-1,3-dione] showed a Ki in assay [1] (setting [3]) of 310 nM. Moreover, in assay [2], the inhibition at 10 µM was determined as 101% and the inhibition at 50 µM was 103%. The concentration for half-maximal inhibition (IC50) in assay [2] (setting [4]) was 70 nM.
For the molecule `COc1ccc([C@H](C)N2C(=O)c3cccc(N4CCN([C@H](C)c5ccccc5)CC4)c3C2=O)cc1OC` [Cpd 3, 2-[(S)-1-(3,4-dimethoxy-phenyl)-ethyl]-4-[4-(1R)-(1-phenyl-ethyl)-piperazin-1-yl]-isoindole-1,3-dione], in assay [1] (setting [3]), the affinity, expressed as Ki, was 160 nM. Also, in assay [2], the inhibition at 10 µM turned out to be 100% and the inhibition at 50 µM stood at 101%. In addition, the half-inhibitory concentration (IC50) in assay [2] (setting [4]) worked out at 130 nM.
For the molecule `COc1ccc([C@@H](C)N2C(=O)c3cccc(N4CCN([C@H](C)c5ccccc5)CC4)c3C2=O)cc1OC` [Cpd 4, (R)-2-[1-(3,4-dimethoxy-phenyl)-ethyl]-4-[4-(1R)-(1-phenyl-ethyl)-piperazin-1-yl]-isoindole-1,3-dione], the inhibitory constant (Ki) in assay [1] (setting [3]) was determined as 230 nM. Moreover, in assay [2], the inhibition at 10 µM was found to be 100% and the inhibition at 50 µM came out at 100%. Also, the half-inhibitory concentration (IC50) in assay [2] (setting [4]) was 150 nM.
Consider `COc1cc(CN2C(=O)c3cccc(N4CCN(CC(C)C)CC4)c3C2=O)cc(OC)c1OC` [Cpd 60, 4-(4-isobutyl-piperazin-1-yl)-2-(3,4,5-trimethoxy-benzyl)-isoindole-1,3-dione], for which, in assay [2], the inhibition at 10 µM came to 8% and the inhibition at 50 µM was 52%. For the same molecule, the half-maximal inhibitory concentration (IC50) in assay [2] (setting [4]) is 42000 nM.
As for `COc1ccc(N2C(=O)c3cccc(N4CC5CCC(C4)N5Cc4ccccc4)c3C2=O)cc1OC` [Cpd 61, 4-(8-benzyl-3,8-diaza-bicyclo[3.2.1]oct-3-yl)-2-(3,4-dimethoxy-phenyl)-isoindole-1,3-dione], in assay [2], the inhibition at 10 µM is 31% and the inhibition at 50 µM is 49%. In assay [2] (setting [4]), the IC50 turned out to be 48000 nM.
As to `COc1ccc(CN2C(=O)c3c(C=CS(C)(=O)=O)ccc(N4CCN([C@H](C)c5ccccc5)CC4)c3C2=O)cc1OC` [Cpd 62, 2-(3,4-dimethoxy-benzyl)-4-(2-methanesulfonyl-vinyl)-7-[4-(1R)-(1-phenyl-ethyl)-piperazin-1-yl]-isoindole-1,3-dione], in assay [2], the inhibition at 10 µM was 99% and the inhibition at 50 µM was 102%. In addition, in assay [2] (setting [4]), the IC50 was 720 nM.
As for `COc1ccc(C(CCCNS(=O)(=O)c2ccc(Cl)s2)N2C(=O)c3cccc(N4CCN([C@H](C)c5ccccc5)CC4)c3C2=O)cc1OC` (stereo partly drawn) [Cpd 71, 5-chloro-thiophene-2-sulfonic acid (4-(3,4-dimethoxy-phenyl)-4-{1,3-dioxo-4-[4-(1R)-(1-phenyl-ethyl)-piperazin-1-yl]-1,3-dihydro-isoindol-2-yl}-butyl)-amide], in assay [2], the inhibition at 10 µM came to 58% and the inhibition at 50 µM was 37%. In addition, in assay [2] (setting [4]), the IC50 turned out to be 1700 nM.
`COc1ccc(CN2C(=O)c3cccc(N4CCN(CC(C)C)CC4)c3C2=O)cc1OC` [Cpd 82, 2-(3,4-dimethoxy-benzyl)-4-(4-isobutyl-piperazin-1-yl)-isoindole-1,3-dione]: the IC50 in assay [2] (setting [5]) amounted to 4700 nM.
`COc1ccc(CN2C(=O)c3cccc(N4CCN(Cc5ccccn5)CC4)c3C2=O)cc1OC` [Cpd 84, 2-(3,4-dimethoxy-benzyl)-4-(4-pyridin-2-ylmethyl-piperazin-1-yl)-isoindole-1,3-dione]: the IC50 in assay [2] (setting [5]) was 2800 nM.
Still for that read-out and setting: as for `COc1ccc(C(CCCNS(=O)(=O)c2cc(S(=O)(=O)c3ccccc3)cs2)N2C(=O)c3cccc(N4CCN([C@H](C)c5ccccc5)CC4)c3C2=O)cc1OC` (stereo partly drawn) [Cpd 92, 4-benzenesulfonyl-thiophene-2-sulfonic acid (4-(3,4-dimethoxy-phenyl)-4-{1,3-dioxo-4-[4-(1R)-(1-phenyl-ethyl)-piperazin-1-yl]-1,3-dihydro-isoindol-2-yl}-butyl)-amide], the figure is 920 nM; as for `COc1ccc(C(CCCNS(=O)(=O)c2ccc(Br)s2)N2C(=O)c3cccc(N4CCN([C@H](C)c5ccccc5)CC4)c3C2=O)cc1OC` (stereo partly drawn) [Cpd 100, 5-bromo-thiophene-2-sulfonic acid (4-(3,4-dimethoxy-phenyl)-4-{1,3-dioxo-4-[4-(1R)-(1-phenyl-ethyl)-piperazin-1-yl]-1,3-dihydro-isoindol-2-yl}-butyl)-amide], 570 nM.
For `COc1ccc(C(CCCNS(=O)(=O)C=Cc2ccccc2)N2C(=O)c3cccc(N4CCN([C@H](C)c5ccccc5)CC4)c3C2=O)cc1OC` (stereo partly drawn) [Cpd 111, 2-phenyl-ethenesulfonic acid (4-(3,4-dimethoxy-phenyl)-4-{1,3-dioxo-4-[4-(1R)-(1-phenyl-ethyl)-piperazin-1-yl]-1,3-dihydro-isoindol-2-yl}-butyl)-amide], the IC50 in assay [2] (setting [5]) was 150 nM.
Take `COc1ccc(C(CCCNS(=O)(=O)c2cc(Cl)sc2Cl)N2C(=O)c3cccc(N4CCN([C@H](C)c5ccccc5)CC4)c3C2=O)cc1OC` (stereo partly drawn) [Cpd 113, 2,5-dichloro-thiophene-3-sulfonic acid (4-(3,4-dimethoxy-phenyl)-4-{1,3-dioxo-4-[4-(1R)-(1-phenyl-ethyl)-piperazin-1-yl]-1,3-dihydro-isoindol-2-yl}-butyl)-amide]: in assay [2] (setting [5]), the half-inhibitory concentration (IC50) is 2600 nM.
`COc1ccc(C(CCCNS(=O)(=O)c2csc3ccccc23)N2C(=O)c3cccc(N4CCN([C@H](C)c5ccccc5)CC4)c3C2=O)cc1OC` (stereo partly drawn) [Cpd 116, benzo[b]thiophene-3-sulfonic acid (4-(3,4-dimethoxy-phenyl)-4-{1,3-dioxo-4-[4-(1R)-(1-phenyl-ethyl)-piperazin-1-yl]-1,3-dihydro-isoindol-2-yl}-butyl)-amide]: the concentration for half-maximal inhibition (IC50) in assay [2] (setting [5]) was 1400 nM.
Still for that read-out and setting: as for `COc1ccc(C(CCCNC(=O)Nc2cccs2)N2C(=O)c3cccc(N4CCN([C@H](C)c5ccccc5)CC4)c3C2=O)cc1OC` (stereo partly drawn) [Cpd 120, 1-(4-(3,4-dimethoxy-phenyl)-4-{1,3-dioxo-4-[4-(1R)-(1-phenyl-ethyl)-piperazin-1-yl]-1,3-dihydro-isoindol-2-yl}-butyl)-3-thiophen-2-yl-urea], the figure is 310 nM.
In the case of `COc1ccc(C(CCNC(=O)Nc2cccs2)N2C(=O)c3cccc(N4CCN([C@H](C)c5ccccc5)CC4)c3C2=O)cc1OC` (stereo partly drawn) [Cpd 121, 1-(3-(3,4-dimethoxy-phenyl)-3-{1,3-dioxo-4-[4-(1R)-(1-phenyl-ethyl)-piperazin-1-yl]-1,3-dihydro-isoindol-2-yl}-propyl)-3-thiophen-2-yl-urea], in assay [2] (setting [5]), the half-inhibitory concentration (IC50) came to 270 nM.
Same read-out and setting: then `COc1ccc([C@@H](CCCNS(=O)(=O)c2sc3ccc(F)cc3c2C)N2C(=O)c3cccc(N4CCN([C@H](C)c5ccccc5)CC4)c3C2=O)cc1OC` [Cpd 137, (R)-5-fluoro-3-methyl-benzo[b]thiophene-2-sulfonic acid (4-(3,4-dimethoxy-phenyl)-4-{1,3-dioxo-4-[4-(1R)-(1-phenyl-ethyl)-piperazin-1-yl]-1,3-dihydro-isoindol-2-yl}-butyl)-amide], with 2200 nM.
Regarding `COc1ccc([C@@H](CCCNS(N)(=O)=O)N2C(=O)c3cccc(N4CCN([C@H](C)c5ccccc5)CC4)c3C2=O)cc1OC` [Cpd 141, (R)-N′-[(4-(3,4-dimethoxy-phenyl)-4-{1,3-dioxo-4-[4-(1R)-(1-phenyl-ethyl)-piperazin-1-yl]-1,3-dihydro-isoindol-2-yl}-butyl)]-sulfamide], the Ki in assay [1] stood at 17 nM.

For the origin of these results see patent publication US8193191B2, “Urotensin II receptor antagonists” (Janssen Pharmaceutica N.V., priority 2006, dated 2012).
